Results reported in article PMC3749181, “Rapid Identification of Antifungal Compounds against Exserohilum rostratum Using High Throughput Drug Repurposing Screens” (PLoS ONE, 2013).
Where two headings read alike, the source gives them in different places.

Key:
[1] = test system: SH-SY5Y cells; assay: SH-SY5Y cytotoxicity counter-screen (ATP content assay); format: cell-based, Human; conditions: for SH-SY5Y % Max. Resp.: Table 2, SH-SY5Y, inact. = no significant activity at 46 µM; for SH-SY5Y % M. Res.: Inact. = no significant activity at 46 µM
Method: Human neuroblastoma SH-SY5Y cell line (Catalog No. CRL-2266) was purchased from ATCC (Manassas, VA). SH-SY5Y cell line was cultured in 175-cm^2 tissue culture flasks (Costar, Cambridge, MA) with 30 ml of growth medium at 37°C in a 5% CO2 humidified atmosphere. Growth medium was made with Dulbecco's Modified Eagle Medium: Nutrient Mixture F-12 with 10% fetal bovine serum (FBS). Growth medium was replaced every other day and cells were passed at 75% confluence.
(§1) The ATPLite assay kit, consisting of luciferase/luciferin and detergent, was used to quantitate cellular ATP levels as a marker for cell viability (Table 1). For assay development, hyphal fragments or conidia in PBS were plated in a seeding density of 3,750, 7,500 and 15,000 cellular particles/well with a final volume of 5 µl/well using the Multidrop-Combi dispenser in white 1536-well plates. Conidia or hyphae fragments were incubated for 24 h at 37°C in a 5% CO2 humidified atmosphere. ATPLite detection reagents were added at 4 µl/well. The assay plates were incubated at room temperature for 15 minutes before reading luminescence intensity on a ViewLux plate reader (Perkin Elmer, Waltham, MA). Conidia suspended in RPMI medium were inoculated at concentrations of 62.5, 125 and 250 conidia/well with a final volume of 5 µl/well in white 1536-well plates. The conidia assay was developed and optimized in the same way as the hyphal assay.
Two small known compound libraries including the LOPAC (1280 compounds) and approved drugs (4096 compounds) were screened in parallel using the above optimized assays for hyphae and conidia in 1536-well plates (Fig. 4). […] A mammalian SH-SY5Y cell line was used in parallel as a counter-screen with the same ATP content assay kit to assess the specificity of these compounds for E. rostratum.

[2] = test system: E. rostratum hyphal fragments; assay: hyphal fragment fungicidal ATP content assay (PBS, 1536-well); format: cell-based, Exserohilum rostratum; conditions: for Emax / IC50: Exserohilum rostratum; for Emax / Hyphae % Max. Resp. / Hyphae % M. Res.: 46 µM Amphotericin B = 100%; for IC50: read-out: Hyphae IC50
Method: (§2) Conidia and hyphae of E. rostratum were obtained as described by Richard et al., with the following modifications. Briefly, conidia were harvested from Potato Dextrose Agar (PDA) cultured media with 0.05% Tween 80, and the conidial suspension was filtered using a Cell Strainer (100 µm, BD Falcon REF 352340). After centrifugation at 700g for 10 min, the suspension was decanted and conidia were resuspended at 1×10^5 per ml in RPMI and counted in a hemocytometer. Hyphae were harvested from yeast extract peptone dextrose (YPD) culture media with 0.05% Tween 80. Hyphal fragments were sized by vortexing 15 sec twice with 0.4 mm glassbeads, and the hyphae suspension was filtered by cheese cloth twice. […] To normalize concentrations of hyphal fragments for batch to batch consistency, carbohydrate analysis was performed by a phenol-sulfuric acid method as previously described. The final stock concentration of hyphae was adjusted to 1.0 (OD490) per 100 µl.
as §1
(§3) The LOPAC library (Sigma-Aldrich) has been extensively used for HTS assay validations, [18]. The NIH Chemical Genomics Center Pharmaceutical (NPC) collection was constructed in-house through a combined effort of compound purchasing and custom synthesis and recently expanded to 4096 compounds. […] 2.5 µl/well PBS was dispensed into 1536-well plates using a Multidrop-Combi dispenser. Compound in DMSO solution was transferred in a volume of 23 nl/well using a NX-TR pintool station (WAKO Scientific Solutions, San Diego, CA). This additional PBS step for compound addition was designed to prevent the potential fungal contamination of compound libraries. The hyphal fragments in PBS were then added at 2.5 µl/well for a final seeding density of 15,000 hyphal fragments/well using the Multidrop-Combi dispenser. The final compound concentration was 46 µM in the primary screen. The assay plates were incubated for 24 h at 30°C before the detection of cellular viability with the ATP content assay. Screen of conidia was performed in a similar way except that PBS was replaced with RPMI medium and conidia were plated for a final seeding density of 250 conidia/well.
(§4) The primary screen data and curve fitting were analyzed using software developed internally at the NIH Chemical Genomics Center (NCGC). Total signals for cellular viability (100% cellular viability) were calculated from the wells with DMSO solvent and the complete cell killing (0% cellular viability) was calculated from 46 µM amphotericin B treated wells. […] All values were expressed as the mean +/− SD (n≥3).

[3] = test system: E. rostratum conidia; assay: conidia growth inhibition ATP content assay (RPMI, 1536-well); format: cell-based, Exserohilum rostratum; conditions: for IC50: read-out: Conidia IC50; for Emax / Conidia % Max. Resp. / Conidia % M. Res.: 46 µM Amphotericin B = 100%; for Conidia IC50: Inact. = no significant activity at the highest compound concentration (46 µM)
Method: as §2, §1, §3, §4

[4] = Table 2, inact. = no significant activity in the primary screen, read-out: Hyphae % Max. Resp.
[5] = Table 2, 24 h, inact. = no significant activity in the primary screen
[6] = Exserohilum rostratum, 24 h, Table 2, 24 h, inact. = no significant activity at the highest compound concentration (46 µM)
[7] = Exserohilum rostratum, Table 2, inact. = no significant activity at 46 µM, read-out: Conidia % Max. Resp.
[8] = Table 2, inact. = no significant activity in the primary screen
[9] = Table 2, inact. = no significant activity at 46 µM
[10] = Table 2, 24 h, inact. = no significant activity at the highest compound concentration (46 µM)
[11] = Table S1, 46 µM Amphotericin B = 100%
[12] = Table S1, Inact. = no significant activity at the highest compound concentration (46 µM)
[13] = Table S1, Inact. = no significant activity in the primary screen
[14] = Table S1, Inact. = no significant activity at 46 µM
[15] = Table S1, Inact. = no significant activity in the primary screen, read-out: Hyphae % M. Res.
[16] = Exserohilum rostratum, Table S1, Inact. = no significant activity at 46 µM, read-out: Conidia % M. Res.

## N=C(N)c1ccc(OCCCCCOc2ccc(C(=N)N)cc2)cc1 [Pentamidine isethionate]
[1]; 46 µM Amphotericin B = 100%
  SH-SY5Y % Max. Resp.: inact.
[1]
  SH-SY5Y % Max. Resp.: inact.
[2]; [4]
  Emax: 82%
[2]; [5]
  IC50: 0.468 µM
[3]; [6]
  IC50: 1.11 µM
[3]; [7]
  Emax: 108%

## CC(=O)[O][Hg][c]1ccccc1 [Phenylmercuric acetate]
[1]; 46 µM Amphotericin B = 100%
  SH-SY5Y % Max. Resp.: 96%
[1]
  SH-SY5Y % Max. Resp.: 0.417%
[2]; [8]
  Hyphae % Max. Resp.: inact.
[2]; [5]
  Hyphae IC50: inact.
[3]; [9]
  Conidia % Max. Resp.: 99%
[3]; [10]
  IC50: 0.146 µM

## O=[N+]([O-])c1c(Cl)cccc1-c1c[nH]cc1Cl [Pyrrolnitrin]
[1]; 46 µM Amphotericin B = 100%
  SH-SY5Y % Max. Resp.: inact.
[1]
  SH-SY5Y % Max. Resp.: inact.
[2]; [4]
  Emax: 80%
[2]; [5]
  IC50: 5.59 µM
[3]; [6]
  IC50: 0.409 µM
[3]; [7]
  Emax: 101%

## Cc1cc(O)c2c(c1)O[C@@]1(C)CC[C@H]3C(C)(C)CCC[C@]34CO[C@@H]2[C@H]41 [Siccanin]
[1]; [11]
  SH-SY5Y % M. Res.: Inact.
[1]; [12]
  SH-SY5Y IC50: Inact.
[2]; [13]
  Hyphae % M. Res.: Inact.
  Hyphae IC50: Inact.
[3]; [14]
  Conidia % M. Res.: Inact.
[3]; Table S1
  Conidia IC50: Inact.

## CN(C/C=C/C#CC(C)(C)C)Cc1cccc2ccccc12 [Terbinafine]
[1]; [11]
  SH-SY5Y % M. Res.: Inact.
[1]; [12]
  SH-SY5Y IC50: Inact.
[2]; [15]
  Emax: 64%
[2]; [13]
  IC50: 34 µM
[3]; [14]
  Conidia % M. Res.: Inact.
[3]; Table S1
  Conidia IC50: Inact.

## CC(C)N1CCN(c2ccc(OCC3COC(Cn4cncn4)(c4ccc(Cl)cc4Cl)O3)cc2)CC1 (stereo not drawn) [Terconazole]
[1]; 46 µM Amphotericin B = 100%
  SH-SY5Y % Max. Resp.: inact.
[1]
  SH-SY5Y % Max. Resp.: inact.
[1]; [11]
  SH-SY5Y % M. Res.: Inact.
[1]; [12]
  SH-SY5Y IC50: Inact.
[2]; [4]
  Emax: 100%
[2]; [5]
  IC50: 6.12 µM
[2]; [15]
  Emax: 100%
[3]; [6]
  IC50: 9.06 µM
[3]; [7]
  Emax: 101%
[3]; [16]
  Emax: 101%

## CCCCCCCCCCCCCC[N+](C)(C)C [Tetradonium bromide]
[1]; 46 µM Amphotericin B = 100%
  SH-SY5Y % Max. Resp.: inact.
[1]
  SH-SY5Y % Max. Resp.: inact.
[2]; [8]
  Hyphae % Max. Resp.: inact.
[2]; [5]
  Hyphae IC50: inact.
[3]; [6]
  IC50: 2.44 µM
[3]; [7]
  Emax: 103%

## CN(C)C(=S)SC(=S)N(C)C [Tetramethylthiuram monosulfide]
[1]
  SH-SY5Y IC50: Inact.
[1]; [11]
  SH-SY5Y % M. Res.: Inact.
[2]; [15]
  Emax: 59%
[2]; [13]
  IC50: 67.9 µM
[3]; Exserohilum rostratum
  IC50: 3.4 µM
[3]; [16]
  Emax: 23%

## C[CH2][Hg][S]c1ccccc1C(=O)[O-].[Na+] [Thimerosal]
[1]; 46 µM Amphotericin B = 100%
  SH-SY5Y % Max. Resp.: 96%
[1]
  SH-SY5Y % Max. Resp.: 2.63%
[2]; [8]
  Hyphae % Max. Resp.: inact.
[2]; [5]
  Hyphae IC50: inact.
[3]; [9]
  Conidia % Max. Resp.: 102%
[3]; [10]
  IC50: 0.139 µM

## Clc1ccc(C(Cn2ccnc2)OCc2ccsc2Cl)c(Cl)c1 (stereo not drawn) [Tioconazole]
[1]; 46 µM Amphotericin B = 100%
  SH-SY5Y % Max. Resp.: inact.
[1]
  SH-SY5Y % Max. Resp.: inact.
[1]; [11]
  SH-SY5Y % M. Res.: Inact.
[1]; [12]
  SH-SY5Y IC50: Inact.
[2]; [4]
  Emax: 100%
[2]; [5]
  IC50: 5.97 µM
[2]; [15]
  Emax: 100%
[3]; [6]
  IC50: 8.55 µM
[3]; [7]
  Emax: 101%
[3]; [16]
  Emax: 101%

## Cc1cccc(N(C)C(=S)Oc2ccc3c(c2)CCC3)c1 [Tolindate]
[1]; [11]
  SH-SY5Y % M. Res.: Inact.
[1]; [12]
  SH-SY5Y IC50: Inact.
[2]; [13]
  Hyphae % M. Res.: Inact.
  Hyphae IC50: Inact.
[3]; [14]
  Conidia % M. Res.: Inact.
[3]; Table S1
  Conidia IC50: Inact.

## O=C(Nc1ccc(Br)cc1)c1cc(Br)cc(Br)c1O [Tribromosalan]
[1]; 46 µM Amphotericin B = 100%
  SH-SY5Y % Max. Resp.: inact.
[1]
  SH-SY5Y % Max. Resp.: inact.
[2]; [8]
  Hyphae % Max. Resp.: inact.
[2]; [5]
  Hyphae IC50: inact.
[3]; [9]
  Conidia % Max. Resp.: 99%
[3]; [10]
  IC50: 1.93 µM

## CC1(C)CCC(=Cc2ccc(Cl)cc2)C1(O)Cn1cncn1 (stereo not drawn) [Triticonazole]
[1]; 46 µM Amphotericin B = 100%
  SH-SY5Y % Max. Resp.: inact.
[1]
  SH-SY5Y % Max. Resp.: inact.
[1]; [11]
  SH-SY5Y % M. Res.: Inact.
[1]; [12]
  SH-SY5Y IC50: Inact.
[2]; [4]
  Emax: 74%
[2]; [5]
  IC50: 5.82 µM
[2]; [15]
  Emax: 74%
[3]; [6]
  IC50: 6.95 µM
[3]; [7]
  Emax: 100%
[3]; [16]
  Emax: 100%

## CC(C)(C)c1cc(C=C(C#N)C#N)cc(C(C)(C)C)c1O [Tyrphostin A9]
[1]; 46 µM Amphotericin B = 100%
  SH-SY5Y % Max. Resp.: 61%
[1]
  SH-SY5Y % Max. Resp.: 18.6%
[2]; [8]
  Hyphae % Max. Resp.: inact.
[2]; [5]
  Hyphae IC50: inact.
[3]; [6]
  IC50: 1.98 µM
[3]; [7]
  Emax: 100%

## CC(C)(C)c1cc(/C=C(\C#N)C(N)=S)cc(C(C)(C)C)c1O [Tyrphostin AG 879]
[1]; 46 µM Amphotericin B = 100%
  SH-SY5Y % Max. Resp.: inact.
[1]
  SH-SY5Y % Max. Resp.: inact.
[2]; [8]
  Hyphae % Max. Resp.: inact.
[2]; [5]
  Hyphae IC50: inact.
[3]; [6]
  IC50: 6.16 µM
[3]; [7]
  Emax: 92%

## Bleomycin sulfate
[1]; 46 µM Amphotericin B = 100%
  SH-SY5Y % Max. Resp.: inact.
[1]
  SH-SY5Y % Max. Resp.: inact.
[2]; [8]
  Hyphae % Max. Resp.: inact.
[2]; [5]
  Hyphae IC50: inact.
[3]; [9]
  Conidia % Max. Resp.: 98%
[3]
  IC50: 1.24 µM
